SMILES strings stand for the structures.

The target of the assay is T1, human cytoplasmic dynein 2 (GFP-dynein 2, amino acids 1091–4307) (Homo sapiens, UniProt Q8NCM8).
T1 construct: (AA 1091–4307, uniprot: Q8NCM8); protein A tag (followed by TEV-cleavable linker) (N, cleaved yes); made in house; host or cells: Sf9 insect cells (baculovirus)
Put plainly: Microtubule gliding (motility) assay with GFP-dynein 2. The conditions noted are these: for Velocity of dynein-2-driven microtubule gliding: 20 µM compound, solvent control 128 ± 14 nm/s, mean ± S.D.; for Velocity of dynein-2-driven microtubule gliding / IC50: 1 mM MgATP, 0.05 mg/mL casein, 2% DMSO; for IC50: read-out: IC50, inhibition of GFP-dynein-2-driven motility. Format: biochemical. Here is the method:
We purified an N-terminally GFP-tagged motor-domain construct of dynein 2 using an insect cell expression system ([Schmidt et al., 2015]). The GFP tag in this construct (GFP-dynein 2, amino acids 1091–4307) allowed the motor protein to be immobilized on passivated glass coverslips used in microtubule gliding assays. GFP-dynein 2 was obtained as a mono-disperse peak by gel filtration (Figure 2D and E). In the presence of ATP (1 mM), this protein moved microtubules with a velocity of 128 ± 14 nm/s (mean ± SD, Figure 2G and I).
Reaction setup: A coverslip-based motility assay was adapted from similar assays reported previously ([Firestone et al., 2012]; [Schmidt et al., 2015]). A flow chamber assembled on a pre-cleaned microscope coverslide (3–5 µL chamber volume) was hydrated with buffer A (25 mM PIPES, 30 mM KCl, 5 mM MgCl2, 1 mM EGTA, 0.01% Triton X-100, 1 mM DTT, 20 µM taxol, pH 7.0 with KOH). Anti-GFP antibody (0.4 mg/mL, affinity purified rabbit antibody) was flowed into the chamber and allowed to adhere non-specifically to the glass for 20 s. The surface was blocked using 0.5 mg/mL α-casein in buffer A. Excess protein was then washed away with buffer A. GFP-dynein motor domain was diluted in buffer A supplemented with 1 mM DTT and 0.1 mM ATP (2 mM DTT final; GFP-dynein 2 diluted to: 180 nM; GFP-dynein 1 diluted to: 60 nM), flowed into the chamber and allowed to bind for 20 s. Excess protein was washed away with buffer A. Reaction mix (25 mM PIPES, 90 mM KCl, 6 mM MgCl2, 1 mM EGTA, 0.01% Triton X-100, 3 mM DTT, 20 µM taxol, 1 mM ATP, 1x oxygen scavenging system components [4.5 mg/mL glucose, 35 µg/mL catalase, 200 µg/mL glucose oxidase], 2% final DMSO [v/v] with compounds at appropriate concentrations, 0.05 mg/mL α-casein, microtubules [rhodamine labeled, purified from bovine brain, GMP-CPP and Taxol-stabilized], pH 7.0 with KOH) was flowed into the chamber using ~4 chamber volumes. For experiments shown in Figure 4—figure supplement 1, α-casein concentration in reaction mix was 0.5 mg/mL and all other parameters were held constant.
For reversibility experiments, motility in the presence of 5 µM 8 was observed as above, and upon completion of imaging, the chamber, fresh buffer A supplemented with 1 mM ATP was flowed into the chamber and incubated for 1 min; this wash and incubation cycle was repeated twice. Reaction mix containing DMSO (no compound) was flowed into the chamber using ~4 chamber volumes. The chamber was sealed with valap and returned to the microscope.
Microscopy conditions: Following addition of reaction mix, microtubules were allowed to bind for 5 min before imaging. For reversibility experiments, microtubules were allowed to bind for 10 min before imaging. Videos were taken on a Zeiss Axiovert 200M wide-field microscope equipped with a Zeiss 100x/1.45 NA α-Plan-Fluar objective. Data were captured with an EM-CCD camera (iXon DU-897, Andor Technology) with a 0.2 s exposure time and frame rate of 0.25–0.5/second. Four 10–20 s videos were captured per experimental condition. Velocities were measured using the kymograph tool in FIJI ([Schindelin et al., 2012]). Data analysis is discussed below under ‘General data analysis procedures.’
Microtubule velocity measurements: the tracks of microtubules were traced and converted to kymographs (x axis-displacement, y axis-time) using the kymograph function of FIJI (RRID: SCR_002285). The angle formed between an edge of a microtubule and the horizontal was measured. This angle, θ, was converted into velocity using the following relationship: velocity = 1/|tangent(θ)| * (unit pixel distance)/(time interval between frames).
The calibrated pixel distance was 0.152 µm and the time interval between frames was either 2 or 4 s. The velocities of at least seven microtubules were measured per field of view, if sufficient tracks could be found. In cases where fewer than seven microtubules were found in a field of view, velocities of all microtubules on the coverslip were measured. […]

T1 sequence (Q8NCM8 1091-4307): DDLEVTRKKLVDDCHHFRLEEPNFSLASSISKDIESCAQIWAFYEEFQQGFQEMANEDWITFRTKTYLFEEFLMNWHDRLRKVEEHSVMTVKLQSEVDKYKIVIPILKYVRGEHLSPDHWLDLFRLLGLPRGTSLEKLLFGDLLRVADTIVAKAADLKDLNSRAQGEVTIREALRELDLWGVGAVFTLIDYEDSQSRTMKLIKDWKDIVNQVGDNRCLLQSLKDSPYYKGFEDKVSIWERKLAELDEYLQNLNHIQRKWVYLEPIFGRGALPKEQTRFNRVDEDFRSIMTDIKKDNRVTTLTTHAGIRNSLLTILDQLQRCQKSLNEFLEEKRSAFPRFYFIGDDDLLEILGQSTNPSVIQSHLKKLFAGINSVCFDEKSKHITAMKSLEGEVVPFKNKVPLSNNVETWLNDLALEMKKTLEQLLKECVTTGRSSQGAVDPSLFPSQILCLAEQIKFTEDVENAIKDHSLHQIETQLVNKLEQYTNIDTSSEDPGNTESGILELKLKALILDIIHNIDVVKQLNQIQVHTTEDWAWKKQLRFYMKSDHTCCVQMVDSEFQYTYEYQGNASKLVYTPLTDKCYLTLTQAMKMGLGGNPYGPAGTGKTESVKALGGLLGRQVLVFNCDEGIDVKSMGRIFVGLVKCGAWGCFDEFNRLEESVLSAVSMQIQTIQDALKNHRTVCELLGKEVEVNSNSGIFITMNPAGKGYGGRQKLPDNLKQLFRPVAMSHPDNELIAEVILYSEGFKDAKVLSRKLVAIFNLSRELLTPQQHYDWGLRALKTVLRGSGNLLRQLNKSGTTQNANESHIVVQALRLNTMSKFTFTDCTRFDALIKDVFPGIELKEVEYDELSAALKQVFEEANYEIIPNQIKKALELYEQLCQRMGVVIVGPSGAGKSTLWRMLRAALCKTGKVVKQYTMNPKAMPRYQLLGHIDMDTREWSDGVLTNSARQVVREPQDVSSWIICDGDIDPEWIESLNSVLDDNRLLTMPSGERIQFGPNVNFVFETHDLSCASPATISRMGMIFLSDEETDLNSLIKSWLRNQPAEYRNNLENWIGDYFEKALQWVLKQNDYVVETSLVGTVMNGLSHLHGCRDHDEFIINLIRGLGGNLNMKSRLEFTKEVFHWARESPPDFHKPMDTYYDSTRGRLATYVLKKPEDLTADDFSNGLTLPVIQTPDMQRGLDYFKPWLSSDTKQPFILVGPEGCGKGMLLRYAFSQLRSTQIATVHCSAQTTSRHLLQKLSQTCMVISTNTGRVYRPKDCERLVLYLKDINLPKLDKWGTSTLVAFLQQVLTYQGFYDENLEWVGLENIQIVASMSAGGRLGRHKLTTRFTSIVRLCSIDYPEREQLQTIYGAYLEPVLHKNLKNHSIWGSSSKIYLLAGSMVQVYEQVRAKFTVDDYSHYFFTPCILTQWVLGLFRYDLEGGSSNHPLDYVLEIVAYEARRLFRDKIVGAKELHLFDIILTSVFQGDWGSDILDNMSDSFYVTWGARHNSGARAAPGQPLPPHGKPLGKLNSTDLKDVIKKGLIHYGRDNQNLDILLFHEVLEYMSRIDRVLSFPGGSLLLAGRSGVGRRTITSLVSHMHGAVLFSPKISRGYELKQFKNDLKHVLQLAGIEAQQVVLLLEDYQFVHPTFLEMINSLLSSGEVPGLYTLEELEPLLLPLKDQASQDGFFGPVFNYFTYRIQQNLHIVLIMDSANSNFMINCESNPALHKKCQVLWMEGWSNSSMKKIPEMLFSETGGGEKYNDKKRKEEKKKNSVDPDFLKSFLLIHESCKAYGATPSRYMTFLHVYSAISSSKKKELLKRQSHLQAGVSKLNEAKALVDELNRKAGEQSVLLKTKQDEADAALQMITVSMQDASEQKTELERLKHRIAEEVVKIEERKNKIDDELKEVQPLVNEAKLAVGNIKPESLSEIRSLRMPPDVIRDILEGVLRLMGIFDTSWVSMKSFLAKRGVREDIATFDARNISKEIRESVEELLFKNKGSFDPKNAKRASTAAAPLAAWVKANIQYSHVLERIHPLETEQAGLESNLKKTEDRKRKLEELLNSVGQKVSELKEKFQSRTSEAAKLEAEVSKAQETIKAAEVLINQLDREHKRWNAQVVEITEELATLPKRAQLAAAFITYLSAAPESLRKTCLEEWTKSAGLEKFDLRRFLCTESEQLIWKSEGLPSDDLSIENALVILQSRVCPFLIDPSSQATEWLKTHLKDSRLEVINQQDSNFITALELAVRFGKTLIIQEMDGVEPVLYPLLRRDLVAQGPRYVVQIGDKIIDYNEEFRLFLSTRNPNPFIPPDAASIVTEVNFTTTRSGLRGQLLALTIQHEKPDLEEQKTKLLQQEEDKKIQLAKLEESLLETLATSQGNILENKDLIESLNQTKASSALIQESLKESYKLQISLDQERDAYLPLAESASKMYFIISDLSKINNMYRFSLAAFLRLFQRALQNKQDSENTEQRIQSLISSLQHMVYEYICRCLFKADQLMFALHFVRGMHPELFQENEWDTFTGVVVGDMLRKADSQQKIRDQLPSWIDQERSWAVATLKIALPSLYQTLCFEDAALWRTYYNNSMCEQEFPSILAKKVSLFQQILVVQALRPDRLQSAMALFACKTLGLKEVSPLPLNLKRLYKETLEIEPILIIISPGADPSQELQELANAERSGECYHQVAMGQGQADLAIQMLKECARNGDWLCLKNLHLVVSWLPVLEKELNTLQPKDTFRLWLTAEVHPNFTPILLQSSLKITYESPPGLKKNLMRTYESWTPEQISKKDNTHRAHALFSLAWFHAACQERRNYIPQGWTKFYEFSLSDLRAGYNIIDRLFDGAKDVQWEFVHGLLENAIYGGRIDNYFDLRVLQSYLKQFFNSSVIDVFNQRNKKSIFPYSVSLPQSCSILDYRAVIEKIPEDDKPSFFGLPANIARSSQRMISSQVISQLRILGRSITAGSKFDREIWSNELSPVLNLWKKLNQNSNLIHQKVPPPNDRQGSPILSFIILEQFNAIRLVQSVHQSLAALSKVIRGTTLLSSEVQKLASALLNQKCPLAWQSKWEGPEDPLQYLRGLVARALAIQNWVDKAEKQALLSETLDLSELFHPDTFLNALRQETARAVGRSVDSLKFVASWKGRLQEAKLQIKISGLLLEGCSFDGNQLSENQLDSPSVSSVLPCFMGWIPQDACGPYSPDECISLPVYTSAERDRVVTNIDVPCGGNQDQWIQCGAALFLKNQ

For the compound `O=c1[nH]c2cc(-c3ccc(Cl)cc3Cl)nn2c2ccccc12` [Compound 3, 2-(2,4-dichlorophenyl)-4H-pyrazolo[1,5-a]quinazolin-5-one], the “Velocity of dynein-2-driven microtubule gliding” value (from here on “Velocity”) is recorded as “comparable to that observed in the presence of ciliobrevin D”.

By IC50 is commonly meant the point on the concentration scale where inhibition reaches its midpoint. For `N#Cc1c(C2(c3ccc(Cl)cc3)CC2)nn2c1[nH]c(=O)c1cc(C(F)(F)F)ccc12` [Compound 6, 2-(1-(4-chlorophenyl)cyclopropyl)-5-oxo-7-(trifluoromethyl)-4,5-dihydropyrazolo[1,5-a]quinazoline-3-carbonitrile], the “Velocity” value came to 6 ± 2 nm/s and the IC50 was determined as 2.9 ± 0.6 µM. The “Improvement in potency of dynein 2 inhibition by cyclization (compound 6 versus compound 9)” value (microtubule gliding assay) is listed as ~ 6 fold.

As for `COc1ccc2c(c1)c(=O)[nH]c1c(C#N)c(C3(c4ccc(Cl)cc4)CC3)nn12` [Compound 7, 2-[1-(4-chlorophenyl)cyclopropyl]-7-methoxy-5-oxo-4H-pyrazolo[1,5-a]quinazoline-3-carbonitrile], the “Velocity” value amounted to 128 ± 21 nm/s.

In the case of `N#C/C(C(=O)c1ccc(Cl)cc1Cl)=C1\NC(=O)c2cc(C(F)(F)F)ccc2N1` [Compound 9, (E)-3-(2,4-dichlorophenyl)-3-oxo-2-(4-oxo-6-(trifluoromethyl)-3,4-dihydroquinazolin-2(1H)-ylidene)propanenitrile], the IC50 was 17.7 µM.

In the case of `N#Cc1c(-c2ccc(Cl)cc2Cl)cn2c1[nH]c(=O)c1ccccc12` [Compound 2, 2-(2,4-dichlorophenyl)-5-oxo-4H-pyrrolo[1,2-a]quinazoline-3-carbonitrile], the “Velocity” value was 126 ± 17 nm/s.

For `N#Cc1c(-c2ccc(Cl)cc2Cl)nn2c1[nH]c(=O)c1ccccc12` [Compound 4, 2-(2,4-dichlorophenyl)-5-oxo-4H-pyrazolo[1,5-a]quinazoline-3-carbonitrile], the “Velocity” value is listed as “comparable to that observed in the presence of ciliobrevin D”.

Turning to `N#Cc1c(C2(c3ccc(Cl)cc3)CC2)nn2c1[nH]c(=O)c1ccccc12` [Compound 5, 2-[1-(4-chlorophenyl)cyclopropyl]-5-oxo-4H-pyrazolo[1,5-a]quinazoline-3-carbonitrile], the “Velocity” value came to 58 ± 14 nm/s.

The values above are taken from paper PMC5478271, “Chemical structure-guided design of dynapyrazoles, cell-permeable dynein inhibitors with a unique mode of action” (eLife, 2017).
